According to ChEMBL document CHEMBL1201862, “PubChem BioAssay data set” (2004):
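Following 48 hours of exposure in 96-well plates, responses at five concentrations were used to interpolate endpoints linearly. The concentration for 50% growth inhibition is given as GI50.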 The source made the active and inactive calls. No stated cut-off is given here; in the data, active = GI50 up to about 1.1 µM and inactive = higher.

Assays:
Test in all cases: NCI tumour cell line growth inhibition, 48 h
A498 = tested on: A498
A549 = tested on: A549
ACHN = tested on: ACHN
DU-145 = tested on: DU-145
EKVX = tested on: EKVX
HCC 2998 = tested on: HCC 2998
HL-60 = tested on: HL-60
HOP-92 = tested on: HOP-92
Hs-578T = tested on: Hs-578T
KM12 = tested on: KM12
MCF7 = tested on: MCF7
NCI-H226 = tested on: NCI-H226
OVCAR-4 = tested on: OVCAR-4
OVCAR-5 = tested on: OVCAR-5
PC-3 = tested on: PC-3
SF-539 = tested on: SF-539
SK-OV-3 = tested on: SK-OV-3
TK-10 = tested on: TK-10
UACC-257 = tested on: UACC-257
UACC-62 = tested on: UACC-62

With O=C1c2ccccc2C(=O)c2c1oc1cc(O)c(Cl)cc21 the GI50 (A498) was 19.7 µM (inactive), the GI50 (A549) was 3.01 µM (inactive) and the GI50 (ACHN) was 7 µM (inactive). The GI50 (DU-145) was 4.89 µM (inactive), the GI50 (EKVX) was 8.75 µM (inactive) and the GI50 (HCC 2998) was 4.62 µM (inactive). For the same compound, the GI50 (HL-60) was 6.92 µM (inactive), the GI50 (HOP-92) was 8.13 µM (inactive) and the GI50 (Hs-578T) was 2.29 µM (inactive). For the same compound, the GI50 (KM12) was 6.35 µM (inactive), the GI50 (MCF7) was 8.11 µM (inactive) and the GI50 (NCI-H226) was 14 µM (inactive). For the same compound, the GI50 (OVCAR-4) was 8.18 µM (inactive), the GI50 (OVCAR-5) was 11.2 µM (inactive) and the GI50 (PC-3) was 10.4 µM (inactive). For the same compound, the GI50 (SF-539) was 5.41 µM (inactive), the GI50 (SK-OV-3) was 17.2 µM (inactive) and the GI50 (TK-10) was 20.9 µM (inactive). The GI50 (UACC-257) was 2.33 µM (inactive) and the GI50 (UACC-62) was 1.93 µM (inactive).
For CCOC(=O)/C=C(\C)Sc1cc(O)c2ccccc2c1O, the GI50 (A498) was 18.5 µM (inactive), the GI50 (A549) was 28.1 µM (inactive) and the GI50 (ACHN) was 13.8 µM (inactive). For the same compound, the GI50 (DU-145) was 9.02 µM (inactive), the GI50 (EKVX) was 27.9 µM (inactive) and the GI50 (HCC 2998) was 8.97 µM (inactive). For the same compound, the GI50 (HL-60) was 3.77 µM (inactive), the GI50 (HOP-92) was 21.2 µM (inactive) and the GI50 (Hs-578T) was 58.9 µM (inactive). For the same compound, the GI50 (KM12) was 28.6 µM (inactive), the GI50 (MCF7) was 13.9 µM (inactive) and the GI50 (NCI-H226) was 25.9 µM (inactive). For the same compound, the GI50 (OVCAR-4) was 16.1 µM (inactive), the GI50 (OVCAR-5) was 24.4 µM (inactive) and the GI50 (PC-3) was 26.4 µM (inactive). The GI50 (SF-539) was 21.5 µM (inactive), the GI50 (SK-OV-3) was 34.4 µM (inactive) and the GI50 (TK-10) was 23.7 µM (inactive). For the same compound, the GI50 (UACC-257) was 18.8 µM (inactive) and the GI50 (UACC-62) was 31.1 µM (inactive).
O=S(=O)(O)c1ccc(Nc2ccnc3ccccc23)cc1 was tested, and the GI50 (A498) was > 100 µM (inactive), the GI50 (A549) was > 100 µM (inactive) and the GI50 (ACHN) was > 100 µM (inactive). The GI50 (DU-145) was > 100 µM (inactive), the GI50 (EKVX) was > 100 µM (inactive) and the GI50 (HCC 2998) was > 100 µM (inactive). For the same compound, the GI50 (HL-60) was > 100 µM (inactive), the GI50 (HOP-92) was > 100 µM (inactive) and the GI50 (Hs-578T) was > 100 µM (inactive). The GI50 (KM12) was > 100 µM (inactive), the GI50 (MCF7) was > 100 µM (inactive) and the GI50 (NCI-H226) was > 100 µM (inactive). For the same compound, the GI50 (OVCAR-4) was > 100 µM (inactive), the GI50 (OVCAR-5) was > 100 µM (inactive) and the GI50 (PC-3) was > 100 µM (inactive). For the same compound, the GI50 (SF-539) was > 100 µM (inactive), the GI50 (SK-OV-3) was > 100 µM (inactive) and the GI50 (TK-10) was > 100 µM (inactive). For the same compound, the GI50 (UACC-257) was > 100 µM (inactive) and the GI50 (UACC-62) was > 100 µM (inactive).
With CCOC(=O)c1c(SC(=O)c2cc(OC)c(OC)c(OC)c2)n(-c2ccccc2)c(=S)n(-c2ccccc2)c1=O the GI50 (A498) was > 100 µM (inactive), the GI50 (A549) was > 100 µM (inactive) and the GI50 (ACHN) was > 100 µM (inactive). The GI50 (DU-145) was > 100 µM (inactive), the GI50 (EKVX) was > 100 µM (inactive) and the GI50 (HCC 2998) was > 100 µM (inactive). For the same compound, the GI50 (HL-60) was > 100 µM (inactive), the GI50 (HOP-92) was > 100 µM (inactive) and the GI50 (Hs-578T) was > 100 µM (inactive). For the same compound, the GI50 (KM12) was > 100 µM (inactive), the GI50 (MCF7) was > 100 µM (inactive) and the GI50 (NCI-H226) was > 100 µM (inactive). The GI50 (OVCAR-4) was > 100 µM (inactive), the GI50 (OVCAR-5) was > 100 µM (inactive) and the GI50 (PC-3) was > 100 µM (inactive). The GI50 (SF-539) was > 100 µM (inactive), the GI50 (SK-OV-3) was > 100 µM (inactive) and the GI50 (TK-10) was > 100 µM (inactive). The GI50 (UACC-257) was > 100 µM (inactive) and the GI50 (UACC-62) was > 100 µM (inactive).
In the case of Cc1ccc(C2=Nn3c(nc4sc(C)c(C)c4c3=O)SC2)cc1, the GI50 (A498) is reported as > 100 µM (inactive), the GI50 (A549) is reported as > 100 µM (inactive) and the GI50 (ACHN) is reported as > 100 µM (inactive). For the same compound, the GI50 (DU-145) was > 100 µM (inactive), the GI50 (EKVX) was > 100 µM (inactive) and the GI50 (HCC 2998) was > 100 µM (inactive). The GI50 (HL-60) was > 100 µM (inactive), the GI50 (HOP-92) was > 100 µM (inactive) and the GI50 (Hs-578T) was > 100 µM (inactive). For the same compound, the GI50 (KM12) was > 100 µM (inactive), the GI50 (MCF7) was > 100 µM (inactive) and the GI50 (NCI-H226) was > 100 µM (inactive). The GI50 (OVCAR-4) was > 100 µM (inactive), the GI50 (OVCAR-5) was > 100 µM (inactive) and the GI50 (PC-3) was > 100 µM (inactive). The GI50 (SF-539) was > 100 µM (inactive), the GI50 (SK-OV-3) was > 100 µM (inactive) and the GI50 (TK-10) was 23.3 µM (inactive). The GI50 (UACC-257) was > 100 µM (inactive) and the GI50 (UACC-62) was > 100 µM (inactive).
CSc1ccc(-c2cc(-c3nc4ccccc4[nH]3)no2)cc1 was tested, and the GI50 (A498) was 30.8 µM (inactive), the GI50 (A549) was 23.6 µM (inactive) and the GI50 (ACHN) was 25.2 µM (inactive). The GI50 (DU-145) was 13.6 µM (inactive), the GI50 (EKVX) was 24.7 µM (inactive) and the GI50 (HCC 2998) was 16.2 µM (inactive). The GI50 (HL-60) was 21.6 µM (inactive), the GI50 (HOP-92) was 50.6 µM (inactive) and the GI50 (Hs-578T) was 37.1 µM (inactive). For the same compound, the GI50 (KM12) was 9.91 µM (inactive), the GI50 (MCF7) was 9.02 µM (inactive) and the GI50 (NCI-H226) was 40.5 µM (inactive). The GI50 (OVCAR-4) was 0.0562 µM (active), the GI50 (OVCAR-5) was > 100 µM (inactive) and the GI50 (PC-3) was 32.6 µM (inactive). For the same compound, the GI50 (SF-539) was 24.7 µM (inactive), the GI50 (SK-OV-3) was 70.5 µM (inactive) and the GI50 (TK-10) was 36.6 µM (inactive). For the same compound, the GI50 (UACC-257) was 30.2 µM (inactive) and the GI50 (UACC-62) was 16.4 µM (inactive).
In the case of COc1ccc(Br)c2c1CC(C(=O)O)CC2 (stereo not given), the GI50 (A498) is reported as > 100 µM (inactive), the GI50 (A549) is reported as > 100 µM (inactive) and the GI50 (ACHN) is reported as > 100 µM (inactive). For the same compound, the GI50 (DU-145) was > 100 µM (inactive), the GI50 (EKVX) was > 100 µM (inactive) and the GI50 (HCC 2998) was > 100 µM (inactive). For the same compound, the GI50 (HL-60) was > 100 µM (inactive), the GI50 (HOP-92) was > 78.5 µM (inactive) and the GI50 (Hs-578T) was > 100 µM (inactive). The GI50 (KM12) was > 100 µM (inactive), the GI50 (MCF7) was > 100 µM (inactive) and the GI50 (NCI-H226) was > 100 µM (inactive). The GI50 (OVCAR-4) was > 100 µM (inactive), the GI50 (OVCAR-5) was > 100 µM (inactive) and the GI50 (PC-3) was > 100 µM (inactive). For the same compound, the GI50 (SF-539) was > 100 µM (inactive), the GI50 (SK-OV-3) was > 100 µM (inactive) and the GI50 (TK-10) was > 100 µM (inactive). For the same compound, the GI50 (UACC-257) was > 100 µM (inactive) and the GI50 (UACC-62) was > 100 µM (inactive).
